We go through eight compounds from patent US10781204B2, “TYK2 inhibitors and uses thereof” (Nimbus Lakshmi, Inc., priority 2015, dated 2020).

Test [1] has as its system JAK2-pSTAT5 (GM-CSF induced pSTAT5). Put plainly: GM-CSF induced pSTAT5 in human PBMC. It is filed as cell-based. The conditions noted are these: 5 ng/mL GM-CSF. In outline:
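Thawed human PBMC, 200,000 per well in serum-containing medium, were preincubated 1 hr at 37 C with compound in 0.1% DMSO. GM-CSF at 5 ng/mL final was added for 20 minutes, then pSTAT5 and total STAT5 in lysates were measured by MSD immunoassay.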

In test [2] the test system is Tyk2-pSTAT4 (IL-12 induced pSTAT4). In words: IL-12 induced pSTAT4 in human PBMC. The test is classed as cell-based. The settings on record: 1.7 ng/mL IL-12, 30 minutes. In outline: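 Thawed human PBMC (200,000 cells/well, serum-containing medium) preincubated with compound 1 hr at 37 C, 0.1% DMSO final. Stimulated with 1.7 ng/mL IL-12 (final) for 30 minutes; pSTAT4 and total STAT4 in lysates measured by MSD immunoassay.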

The target of another test is JAK2 (Homo sapiens (Human), UniProt O60674). In words: JAK2 radioactive kinase assay. The test is classed as biochemical. The settings on record: ATP 10 μM. In a few lines: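 Radiometric assay in Hepes pH 7.5, MgCl2, EGTA, Brij35, BSA, DTT, 1% DMSO, with 10 μM [33P]ATP, 120 min at room temp; P81 paper capture and counting. […]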
Another test addresses TYK2 (Homo sapiens (Human), UniProt P29597). Put plainly: Tyk2 radioactive kinase assay. The test is classed as biochemical. The settings on record: ATP 10 μM. In outline: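 Recombinant human TYK2 (Invitrogen) was mixed with 20 μM peptide substrate in a buffer of 20 mM Hepes pH 7.5, 10 mM MgCl2, 1 mM EGTA, 0.02% Brij35, 0.02 mg/mL BSA, 0.1 mM […], 2 mM DTT and 1% DMSO, and compounds in DMSO were added. Adding ^33P-ATP (10 μM ATP) started the reaction, which ran 120 min at room temperature. Mixtures were then spotted onto P81 ion-exchange paper, washed thoroughly in 0.75% phosphoric acid, and counted for radioactivity.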

TYK2, sequence (P29597 whole entry): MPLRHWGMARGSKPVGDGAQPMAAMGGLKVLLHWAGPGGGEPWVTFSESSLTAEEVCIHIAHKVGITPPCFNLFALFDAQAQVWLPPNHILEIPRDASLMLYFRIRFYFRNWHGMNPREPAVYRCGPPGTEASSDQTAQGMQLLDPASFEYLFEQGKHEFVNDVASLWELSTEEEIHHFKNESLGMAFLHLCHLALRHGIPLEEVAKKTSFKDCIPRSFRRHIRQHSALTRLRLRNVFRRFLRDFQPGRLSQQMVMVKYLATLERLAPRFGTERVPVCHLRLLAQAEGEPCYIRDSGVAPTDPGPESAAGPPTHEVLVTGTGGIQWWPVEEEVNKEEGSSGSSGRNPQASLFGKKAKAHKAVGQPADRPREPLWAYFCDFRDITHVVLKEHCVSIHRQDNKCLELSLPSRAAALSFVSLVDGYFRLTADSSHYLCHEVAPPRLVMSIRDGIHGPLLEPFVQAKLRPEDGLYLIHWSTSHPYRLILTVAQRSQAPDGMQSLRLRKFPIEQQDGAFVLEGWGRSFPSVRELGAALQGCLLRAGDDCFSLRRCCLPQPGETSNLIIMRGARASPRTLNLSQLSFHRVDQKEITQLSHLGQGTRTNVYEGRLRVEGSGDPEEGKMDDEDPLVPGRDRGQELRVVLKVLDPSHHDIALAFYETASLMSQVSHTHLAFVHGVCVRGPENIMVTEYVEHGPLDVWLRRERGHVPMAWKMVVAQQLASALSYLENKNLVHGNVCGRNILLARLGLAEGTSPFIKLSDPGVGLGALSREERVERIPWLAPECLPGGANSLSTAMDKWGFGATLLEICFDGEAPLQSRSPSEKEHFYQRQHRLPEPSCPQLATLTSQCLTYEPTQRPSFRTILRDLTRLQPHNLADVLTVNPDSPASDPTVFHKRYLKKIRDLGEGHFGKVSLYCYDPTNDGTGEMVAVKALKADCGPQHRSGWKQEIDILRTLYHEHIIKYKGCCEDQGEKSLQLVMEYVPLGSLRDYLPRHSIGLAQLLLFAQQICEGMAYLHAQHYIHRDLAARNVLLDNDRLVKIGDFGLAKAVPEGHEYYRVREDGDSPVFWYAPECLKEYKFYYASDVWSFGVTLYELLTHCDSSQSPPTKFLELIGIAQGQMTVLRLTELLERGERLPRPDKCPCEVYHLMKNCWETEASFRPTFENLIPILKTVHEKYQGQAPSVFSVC
JAK2, sequence (O60674 whole entry): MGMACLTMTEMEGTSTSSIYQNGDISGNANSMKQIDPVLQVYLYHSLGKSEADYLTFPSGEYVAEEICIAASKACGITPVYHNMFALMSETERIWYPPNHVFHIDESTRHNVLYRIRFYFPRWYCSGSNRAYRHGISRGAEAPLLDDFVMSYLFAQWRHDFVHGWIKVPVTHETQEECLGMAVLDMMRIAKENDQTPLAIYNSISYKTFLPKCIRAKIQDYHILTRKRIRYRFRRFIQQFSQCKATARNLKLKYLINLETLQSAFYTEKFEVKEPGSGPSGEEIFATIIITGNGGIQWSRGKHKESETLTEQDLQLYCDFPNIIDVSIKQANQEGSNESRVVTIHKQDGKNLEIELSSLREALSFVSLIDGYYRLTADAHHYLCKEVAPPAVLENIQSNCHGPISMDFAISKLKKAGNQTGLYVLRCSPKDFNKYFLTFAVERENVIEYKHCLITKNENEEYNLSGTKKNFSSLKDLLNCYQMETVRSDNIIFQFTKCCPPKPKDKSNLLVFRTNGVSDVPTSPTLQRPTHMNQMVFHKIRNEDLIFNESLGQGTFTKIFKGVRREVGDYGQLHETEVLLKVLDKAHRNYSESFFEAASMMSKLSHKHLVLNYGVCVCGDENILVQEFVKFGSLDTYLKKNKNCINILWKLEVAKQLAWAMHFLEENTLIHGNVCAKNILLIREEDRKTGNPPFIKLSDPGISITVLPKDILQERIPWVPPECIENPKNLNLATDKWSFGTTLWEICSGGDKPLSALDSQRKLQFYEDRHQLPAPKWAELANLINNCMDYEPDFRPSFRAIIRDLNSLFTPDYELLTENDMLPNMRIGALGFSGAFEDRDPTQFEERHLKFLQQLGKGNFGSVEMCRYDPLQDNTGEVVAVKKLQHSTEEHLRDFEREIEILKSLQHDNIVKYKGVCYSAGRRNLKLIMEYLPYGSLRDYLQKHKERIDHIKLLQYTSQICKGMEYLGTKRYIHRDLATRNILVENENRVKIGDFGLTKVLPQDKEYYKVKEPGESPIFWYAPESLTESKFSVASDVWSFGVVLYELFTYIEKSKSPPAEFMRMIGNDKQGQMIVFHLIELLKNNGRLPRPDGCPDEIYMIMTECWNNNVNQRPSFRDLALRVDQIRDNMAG

One may read the EC50 as the midpoint of the concentration-response curve. Low values mean higher potency in that assay, high ones lower potency in that assay. Broadly, the Ki is the dissociation constant of the complex between target and ligand, obtained from inhibition or displacement. Turning to `CO[C@H]1CN(c2ccn(-c3cc(-c4c(F)cccc4C#N)nc4c3C(=O)NC4)n2)C[C@@]1(C)O` [I-226, 3-fluoro-2-(4-(3-((3R,4S)-3-hydroxy-4-methoxy-3-methyl-pyrrolidin-1-yl)-1H-pyrazol-1-yl)-5-oxo-6,7-dihydro-5H-pyrrolo[3,4-b]pyridin-2-yl)benzonitrile], the EC50 in test [1] (Homo sapiens, PBMC, 20 min) fell in the range of 100 to 2000 nM; in test [2] (Homo sapiens, PBMC, 0.5 h), 30 to 100 nM. The Ki on JAK2 and on TYK2 was 0.1 to 10 nM each time.

On to `CC1=C(c2ccn(-c3cc(-c4c(F)cccc4C#N)nc4c3C(=O)NC4)n2)CNC1=O` [I-227, 3-fluoro-2-(4-(3-(4-methyl-5-oxo-2,5-dihydro-1H-pyrrol-3-yl)-1H-pyrazol-1-yl)-5-oxo-6,7-dihydro-5H-pyrrolo[3,4-b]pyridin-2-yl)benzonitrile], for which the EC50 in test [1] (Homo sapiens, PBMC, 20 min) is 100 to 2000 nM; in test [2] (Homo sapiens, PBMC, 0.5 h), 100 to 2000 nM. Also, the Ki at JAK2 is 10 to 100 nM; at TYK2, 0.1 to 10 nM.

For `CO[C@@H]1CCN(c2ccn(-c3cc(-c4c(F)cccc4C#N)nc4c3C(=O)NC4)n2)C[C@]1(C)O` [I-228, 3-fluoro-2-(4-(3-((3S,4R)-3-hydroxy-4-methoxy-3-methylpiperidin-1-yl)-1H-pyrazol-1-yl)-5-oxo-6,7-dihydro-5H-pyrrolo[3,4-b]pyridin-2-yl)benzonitrile], the EC50 in test [1] (20 minutes) and in test [2] was 100 to 2000 nM in each case. Besides, the results for the Ki at JAK2 and on TYK2 were 10 to 100 nM and 0.1 to 10 nM, respectively.

Turning to `CO[C@H]1CN(c2ccn(-c3cc(-c4c(F)cccc4C#N)nc4c3C(=O)NC4)n2)C[C@@]1(C)OC` [I-230, 2-(4-(3-((3R,4S)-3,4-dimethoxy-3-methylpyrrolidin-1-yl)-1H-pyrazol-1-yl)-5-oxo-6,7-dihydro-5H-pyrrolo[3,4-b]pyridin-2-yl)-3-fluorobenzonitrile], the EC50 was in the range of 100 to 2000 nM in test [1] (Homo sapiens, PBMC, 20 min) and 100 to 2000 nM in test [2] (Homo sapiens, PBMC, 0.5 h). Further, the Ki at JAK2 and on TYK2 was 0.1 to 10 nM throughout.

Regarding `N#Cc1cccc(F)c1-c1cc(-c2ccn(C(=O)N3CCOCC3)n2)c2c(n1)CNC2=O` [I-231, 3-fluoro-2-(4-(1-(morpholine-4-carbonyl)-1H-pyrazol-3-yl)-5-oxo-6,7-dihydro-5H-pyrrolo[3,4-b]pyridin-2-yl)benzonitrile], the EC50 in test [1] (Homo sapiens, PBMC, 20 min) was above 2000 nM; in test [2] (Homo sapiens, PBMC, 0.5 h) it was above 2000 nM. For the same compound, the Ki on JAK2 was in the range of 100 to 1000 nM; at TYK2 it was 10 to 100 nM.

On to `CC(C)c1ncn(-c2cc(-c3c(F)cccc3C#N)nc3c2C(=O)NC3)n1` [I-232, 3-fluoro-2-(4-(3-isopropyl-1H-1,2,4-triazol-1-yl)-5-oxo-6,7-dihydro-5H-pyrrolo[3,4-b]pyridin-2-yl)benzonitrile], for which the EC50 in test [1] (Homo sapiens, PBMC, 20 min) is 100 to 2000 nM; in test [2] (Homo sapiens, PBMC, 0.5 h) it was above 2000 nM. Besides, the Ki at JAK2 and on TYK2 was at least 1000 nM each time.

As to `CC(C)c1csc(-c2cc(-c3c(F)cccc3F)nc3c2C(=O)NC3)n1` [I-233, 2-(2,6-difluorophenyl)-4-(4-isopropylthiazol-2-yl)-6,7-dihydro-5H-pyrrolo[3,4-b]pyridin-5-one], the EC50 is above 2000 nM in test [1] (Homo sapiens, PBMC, 20 min) and above 2000 nM in test [2] (Homo sapiens, PBMC, 0.5 h). For the same compound, the Ki on JAK2 was at least 1000 nM; on TYK2 it was 10 to 100 nM.

For `N#Cc1cccc(F)c1-c1cc(-c2ccn([C@@H]3COC[C@@H]3O)n2)c2c(n1)CNC2=O` [I-234, 3-fluoro-2-(4-(1-((3R,4R)-4-hydroxytetrahydrofuran-3-yl)-1H-pyrazol-3-yl)-5-oxo-6,7-dihydro-5H-pyrrolo[3,4-b]pyridin-2-yl)benzonitrile], the EC50 is above 2000 nM in test [1] (Homo sapiens, PBMC, 20 min) and 100 to 2000 nM in test [2] (Homo sapiens, PBMC, 0.5 h). Moreover, the Ki at JAK2 was in the range of 100 to 1000 nM; at TYK2 it was 10 to 100 nM.
